Measured values from patent publication US20230391727A1, “ANALOGUES OF PENTAMIDINE AND METHODS FOR TREATING INFECTIONS” (Auransa Inc., priority 2020, published 2023).
≈ marks a conversion by molar mass, not a printed value. Read-outs that look alike come from different tables or passages of the source.

Tests used:
[1] = system: NCI H69 cells; test: CellTiter-Glo cell viability assay (cytotoxicity), 8 days; assay type: cell-based; conditions: Homo sapiens, 192 h, full growth media
Description: The experiment tested pentamidine, Compounds 1-6 in full growth media for 8 days. NCI H69 cells were initially treated with the test compounds on Day 0, and the cells were then replenished with fresh compound dilutions on Day 3. Pentamidine and Compound 1 were tested at 9 concentration points: 100 μM, 33.33 μM, 11.11 μM, 3.70 μM, 1.23 μM, […], 0.05 μM, and 0.02 μM (final DMSO concentration=0.5%). The raw data values from the CellTiter-Glo™ cell viability assay expressed in relative luminescence units were normalized to the vehicle for each individual plate, and any reduction in luminescence indicated a decrease in viability (%). The data was analyzed in GraphPad PRISM using a non-linear sigmoidal plot with variable slope (asymmetric four-point […]), and an IC50 value for each compound was generated based on the normalized dose-response curves and shown in Table 1.

[2] = system: A. baumannii ATCC 17978; test: Checkerboard assay with novobiocin (FIGS. 2, 3, 5, 6); assay type: cell-based, Acinetobacter baumannii
Description: Novobiocin is an anti-staphylococcal drug, but with limited use. The oral form of novobiocin drug has since been withdrawn from the market due to lack of efficacy. This antibiotic is often used to treat Staphylococcus aureus infection, particularly methicillin resistant S. aureus “MRSA”.

[3] = system: K. pneumoniae ATCC 43816; test: Checkerboard assay with rifampicin (FIG. 4); assay type: cell-based, Klebsiella pneumoniae; conditions: K. pneumoniae ATCC 43816, FIG. 4
[4] = system: S. aureus ATCC 43300; test: MIC assay against gram positive S. aureus; assay type: cell-based; conditions: Staphylococcus aureus, ATCC43300
Description: (§1) Then the compound stocks were serially 2-fold diluted in a v-bottom 96-well plate to make 100-fold working solutions. One day before the test, −80° C. glycerol stock of S. aureus strains were streaked on cation-adjusted Mueller-Hinton agar (CAMHA) plates. On the day of test, fresh bacterial colonies were suspended into sterile saline to an OD600 nm of ˜0.1 (equivalent to 0.5 McFarland). The bacterial suspension was firstly 20-fold followed by 50-fold diluted in cation-adjusted Mueller-Hinton broth (CAMHB) plates to 1×10^6 CFU/PO. 198 ul of the inoculum was added into the round-bottom 96-well plates prefilled with 2 ul of 100-fold compound working solutions. After incubating at 35 +/−2° C. in ambient atmosphere for 18-24 h, MIC was recorded as the lowest concentration under which no visible bacterial growth was observed.

[5] = system: S. aureus ATCC 27660; test: MIC assay against gram positive S. aureus; assay type: cell-based; conditions: Staphylococcus aureus, ATCC27660
Description: as §1

[6] = system: Staphylococcus aureus ATCC 19636; test: MIC assay against gram positive and antibiotic-resistant S. aureus; assay type: cell-based; conditions: ATCC19636; Staphylococcus aureus ATCC 19636; read-out: MIC
Description: (§2) The MICs of vancomycin and linezolid were determined as quality controls and the MIC values of each strain met the acceptance criteria based on PDS historical reference data.
(§3) The direct colony suspension method was used to prepare inoculated broth. Isolated colonies were taken from an 18-24 h culture plate. Optical density measurements (OD620 nm) were used to estimate the bacterial density. The test article, compound 3, and reference control stock solutions were prepared in 100% DMSO as 50× stock solutions. The 50× stock solutions were diluted by 2-fold serial titrations with 100% DMSO for a total of 11 concentrations. A 4 μL aliquot of each dilution was added to 196 μL of cation-adjusted Mueller Hinton Broth II medium seeded with the organism in wells of a 96 well plate. The final vehicle concentration was two percent (2%) in all assay wells. The final bacterial count was 2 to 8×10^5 CFU/mL. The final compound 3 concentration range was 16 to 0.016 μg/mL. Each test substance dilution was evaluated in duplicate on one test occasion. Vehicle-control and reference controls were used as blank and positive controls, respectively. Plates were incubated at 35-37° C. for 18 h. The test plates were visually examined and each well was visually scored for growth or complete inhibition of growth. The MIC value was recorded.

[7] = system: Staphylococcus aureus ATCC 33591 (MRSA); test: as above; assay type: cell-based; conditions: Staphylococcus aureus ATCC 33591, MRSA; read-out: MIC
Description: as §2, §3

[8] = system: Staphylococcus aureus BAA-1556 (MRSA); test: as above; assay type: cell-based; conditions: Staphylococcus aureus BAA-1556, MRSA; read-out: MIC
Description: as §2, §3

[9] = system: Staphylococcus aureus VRS-2 (VRSA); test: as above; assay type: cell-based; conditions: Staphylococcus aureus VRS-2, VRSA; read-out: MIC
Description: as §2, §3

[10] = system: S. aureus VRS-2; test: S. aureus VRS-2 peritonitis infection model; assay type: in vivo, female ICR mice; conditions: 50 mg/kg PO QD, 1 h post-infection, p<0.05
Description: The efficacy of compound 3 was evaluated in the S. aureus VRS-2 peritonitis infection model. The test article, compound 3 at 0.1, 0.3 and 1 mg/kg, was intraperitoneally (IP) administered twice at 2 and 16 h after infection; as well as once at 2 mg/kg at 2 h post-infection. The control reference agent, linezolid at 50 mg/kg, was orally (PO) administered once at 1 h post-infection. […] All animals in the vehicle group succumbed to infection between Day 1 to Day 2, resulting in 100% mortality, and a mean 15 h survival time. […] In the compound 3 at 1 mg/kg IP BID dose group, one out of eight animals survived till Day 7 of the study period, resulting in 13% survival rate, and a mean 33 h survival time.
For efficacy testing, the 0.4 mg/mL compound 3 solution was prepared by dissolving 1.21 mg of compound 3, corresponding to active ingredient of 1.02 mg with a correction factor of 1.19, in 2.55 mL of WFI. The 0.4 mg/mL compound 3 working solution was further diluted with WFI to generate three lower dosing solutions of 0.2, 0.06 and 0.02 mg/mL. All dosing solutions were soluble and colorless.
PDS supplied vancomycin and linezolid as reference controls for both MIC and in vivo studies. […] The 3.2 mg/mL linezolid 50× stock solution was prepared by dissolving 1.0 mg of linezolid in 0.313 mL of DMSO. Both solutions were colorless and soluble. For efficacy testing, one tablet of linezolid, at 600 mg, was dissolved in 12 mL of 1% Tween 80 in saline (0.9% NaCl) to generate a 50 mg/mL of stock solution. The 50 mg/mL linezolid stock solution was further diluted with 1% Tween 80 in 0.9% NaCl to generate the dosing solution of 5 mg/mL. Both solutions were insoluble with white color.
The S. aureus strain VRS-2 peritonitis infection model was performed with immunocompetent female ICR mice, weighing 22±2 g. All animals were specific pathogen free. The PDS standard protocol for preparing S. aureus cultures for mouse infection studies was followed. A 0.2 mL aliquot of a single-use glycerol stock (at −80° C.) was used to seed […] heart infusion (BHI) and then incubated at 35-37° C. with shaking (250 rpm) for 8 h. Bacterial cells in the 20 mL was pelleted by centrifugation (3,500×g) for 15 minutes, and then re-suspended in 10 mL cold phosphate buffer saline (PBS). The optical density, OD620 nm, was measured and used to guide dilution. The PBS suspensions were stored on ice for no more than 1 h prior to animal inoculation. The dilutions were performed by 1:1 dilution of BHI broth containing hog gastric mucin to obtain the target inoculum density, 1×10^8 CFU/mouse, per 0.5 mL with 5% mucin (final concentration). The actual colony count was determined by plating dilutions to nutrient agar (NA) plates followed by 20-24 h incubation at 35-37° C.
On Day 0, animals were infected with bacterial suspension with 5% mucin by intraperitoneal injection. The actual inoculum was 1.93×10^8 CFU/mouse with a target inoculum of 1×10^8 CFU/mouse in the peritonitis infection model. Test article, compound 3, was formulated in WFI and intraperitoneally (IP) administered with the dose schedule and concentrations indicated in the study design. Doses were administered once at 2 h post-infection or twice (BID) at 2 and 16 h post-infection. The animals were monitored for survival up to 7 days, twice daily (AM 9:00/PM 17:00). […]
Animals were monitored for mortality twice daily (AM 9:00/PM 17:00) for 7 days after infection. […]

[11] = system: Blastomyces dermatitidis BD1; test: Anti-fungal MIC assay; assay type: cell-based
Description: (§4) The first round of testing included Candida parapsilosis, Candida krusei, Paecilomyces variotii, Candida albicans, Aspergillus fumigatus, and Blastomyces dermatitidis. […] The second round of testing included Candida parapsilosis, Candida krusei, Candida albicans, Candida auris, Candida glabrata, Candida guilliermondii, and Cryptococcus neoformans.
(§5) Stock solutions of the investigational agent were prepared at concentrations 100-times the highest concentration to be tested (6400 μg/ml) using dimethyl sulfoxide. Aliquots of the stock solutions were dispensed into polystyrene vials and stored at −20° C.
(§6) The synthetic medium RPMI-1640 (with glutamine, without bicarbonate, and with phenol red) was used. The RPMI was buffered to a pH of 7.0+0.1 at 25° C. with 0.165M MOPS (3-[N-morpholino] propanesulfonic acid). Sterile U-shaped 96-well cell culture plates were used to perform the MIC assays. Dilutions of the DMSO stocks were prepared in RPMI to achieve 2× concentrations. After the dilutions of the working 2× investigational antifungal solutions were prepared, 0.1 ml of each concentration was transferred into a pre-specified column of the U-shaped 96-well cell culture plate using sterile pipettes.
(§7) Fungal isolates were grown on Sabouraud dextrose agar (yeasts) or potato flake agar (filamentous fungi) and cells were collected after an appropriate period of growth for each species being evaluated (e.g., 48-72 hours for yeasts and 7 days for filamentous fungi). The fungi were suspended in sterile distilled water, and the densities of the fungal suspension were read using a spectrophotometer and adjusted to an appropriate optical density specific for each fungal species. The fungal suspension of each isolate was then diluted in RPMI. A sufficient volume of the test inoculum was prepared to directly inoculate 0.1 ml into each test well of the 96-well cell culture plate. Final inoculum ranges were dependent on the fungal species to be tested (e.g., 0.4×103 to 5×10^3 cells/ml for yeasts and dimorphic fungi, and 0.4×104 to 5×10^4 cells/ml for filamentous fungi). Each well of the 96-well cell culture plate containing the investigational antifungal compounds (0.1 ml volume) was inoculated on the day of the assay with 0.1 ml of the fungal suspension. Growth control wells contained 0.1 ml of fungal suspension and 0.1 ml of the growth medium without antifungal agents. The media control well contained 0.2 ml of the growth medium.
(§8) The microdilution trays were incubated at 35° C. without agitation. […] One positive comparator/control was used for yeast (fluconazole) and one was used for filamentous fungi (voriconazole).

[12] = system: Aspergillus fumigatus AF293; test: Anti-fungal MIC assay; assay type: cell-based; conditions: read-out: MIC, 50% growth inhibition
Description: as §4, §5, §6, §7, §8

[13] = system: Blastomyces dermatitidis BD3; test: Anti-fungal MIC assay; assay type: cell-based
Description: as §4, §5, §6, §7, §8

[14] = system: Aspergillus fumigatus AF3; test: Anti-fungal MIC assay; assay type: cell-based
Description: as §4, §5, §6, §7, §8

[15] = system: Blastomyces dermatitidis BD2; test: Anti-fungal MIC assay; assay type: cell-based
Description: as §4, §5, §6, §7, §8

[16] = system: Candida krusei ATCC6258; test: Anti-fungal MIC assay; assay type: cell-based; conditions: Pichia kudriavzevii, first round (Table 5)
Description: as §4, §5, §6, §7, §8

[17] = system: Aspergillus fumigatus AF2; test: Anti-fungal MIC assay; assay type: cell-based
Description: as §4, §5, §6, §7, §8

[18] = read-out: MIC, 50% growth inhibition
[19] = read-out: MIC, 100% growth inhibition

N=C(N)c1cccc(CCCCCCCc2cccc(C3CCNC3)c2)c1 (centres unmarked) [Compound 2, 3-(7-(3-(pyrrolidin-3-yl)phenyl)heptyl)benzimidamide]
IC50 [1]: 1.5 µM
synergistic effect with novobiocin [2]: clear synergistic effects
synergy with novobiocin as compared to pentamidine with novobiocin [2]: superior synergy
MIC ([2]; Acinetobacter baumannii, ATCC17978, substance alone): 138 µM
synergy with rifampicin [3]: increased level of synergy

CC(=O)NC[C@H]1CN(c2ccc(N3CCOCC3)c(F)c2)C(=O)O1 [Linezolid, reference compound]
MIC [4]: 4 µg/mL (≈ 11.9 µM)
MIC [5]: 4 µg/mL (≈ 11.9 µM)
MIC [6]: 4 µg/mL (≈ 11.9 µM)
MIC [7]: 2 µg/mL (≈ 5.93 µM)
MIC [8]: 2 µg/mL (≈ 5.93 µM)
MIC [9]: 4 µg/mL (≈ 11.9 µM)
survival rate [10]: 100%
mean survival time ([10]; maximum set at 180 h): 180 h

C[C@@H](c1ncncc1F)[C@](O)(Cn1cncn1)c1ccc(F)cc1F [Voricolazole, voriconazole, reference compound]
MIC [11, 18]: ≤ 0.03 µg/mL
MIC [11, 19]: 0.06 µg/mL (≈ 0.172 µM)
MIC [12]: 0.25 µg/mL (≈ 0.716 µM)
MIC [13, 18]: ≤ 0.03 µg/mL
MIC [13, 19]: 0.125 µg/mL (≈ 0.358 µM)
MIC [14, 18]: 2 µg/mL (≈ 5.73 µM)
MIC [14, 19]: 4 µg/mL (≈ 11.5 µM)
MIC [15, 18]: ≤ 0.03 µg/mL
MIC [15, 19]: 0.125 µg/mL (≈ 0.358 µM)
MIC ([16]; ATCC6258, Candida krusei ATCC6258, read-out: MIC, 50% growth inhibition): ≤ 0.03 µg/mL
MIC ([16]; ATCC6258, read-out: MIC, 100% growth inhibition, Candida krusei ATCC6258): 0.125 µg/mL (≈ 0.358 µM)
MIC [17, 18]: > 16 µg/mL
MIC [17, 19]: > 16 µg/mL
